What was measured:
Assay type in all cases: ADME, organism-based
[1] = Primary phase half life in C57BL/6N mouse at 0.171 mM, iv measured upto 24 hrs; settings: in vivo, read-out: alphat1/2 (converted)
[2] = Terminal half life in C57BL/6N mouse at 0.171 mM, iv measured upto 24 hrs; settings: in vivo, read-out: beta t1/2 (converted)
[3] = Volume of distribution in C57BL/6N mouse at 0.171 mM, iv measured upto 24 hrs; settings: in vivo
[4] = Clearance in C57BL/6N mouse at 0.171 mM, iv measured upto 24 hrs; settings: in vivo
[5] = AUCt in C57BL/6N mouse at 0.171 mM, iv measured upto 24 hrs; settings: in vivo

SMILES	half-life at 171 µM [1] [h]	half-life at 171 µM [2] [h]	Vd at 171 µM [3] [L/kg]	clearance at 171 µM [4] [mL/min/kg]	AUC(0-t) at 24 h, 171 µM [5] [ng·h/mL]
CCCCCCCCCCCCCCCC(=O)NCCCCC(NC(=O)COCCOCCNC(=O)CCCCC[N+]1=C(/C=C/C2=CC(=C/C=C3/N(C)c4ccc(S(=O)(=O)O)cc4C3(C)C)/CCC2)C(C)(C)c2cc(S(=O)(=O)[O-])ccc21)C(=O)NCCOCCOCC(=O)NCCOCCOCC(=O)NC(CSSc1ccccn1)C(N)=O (centres undefined)	1.51	7.62	0.0284	0.135	146000
CN1/C(=C/C=C2C=C(/C=C/C3=[N+](CCCCCC(=O)NCCOCCOCC(=O)NCCOCCOCC(=O)NCCOCCOCC(=O)NC(CSSc4ccccn4)C(N)=O)c4ccc(S(=O)(=O)[O-])cc4C3(C)C)CCC/2)C(C)(C)c2cc(S(=O)(=O)O)ccc21 (centres undefined)	1.26	4.73	0.0413	0.307	50500
CCCCCCCCCCCCCCCC(=O)NCCCCC(NC(=O)COCCOCCNC(=O)CCCCC[N+]1=C(/C=C/C2=CC(=C/C=C3/N(C)c4ccc(S(=O)(=O)O)cc4C3(C)C)/CCC2)C(C)(C)c2cc(S(=O)(=O)[O-])ccc21)C(=O)NCCOCCOCC(=O)NCCOCCOCC(N)=O (centres undefined)	–	0.83	0.0427	0.563	30800

Source: ChEMBL document CHEMBL6096712, “Ligand Design with Accelerated Disulfide Formation with Serum Albumin to Extend Blood Retention” (ACS Med Chem Lett, 2025)
